B1: IL-1α: cytokine, RA-related inflammatory mediator (protein, UniProt P01583 113-271, looked up)
Interleukin-1 alpha: SAPFSFLSNVKYNFMRIIKYEFILNDALNQSIIRANDQYLTAAALHNLDEAVKFDMGAYKSSKDDAKITVILRISKTQLYVTAQDEDQPVLLKEMPEIPKTITGSETNLLFFWETHGTKNYFTSVAHPNLFIATKQDYWVCLAGGPPSITDFQILENQA

How the values were obtained:
KIAA1199/HEK293 cells = assay: Inhibitor experiment: [3H]HA decomposition in HEK293 cells stably expressing KIAA1199; assay type: cell-based, human; details: preliminary treatment with inhibitor 3 hours, then 6 hours with [3H]HA
Description: Cells were cultured in a medium containing [^3H]HA (40,000 dpm/mL) to confluent. […] The medium was eluted with 0.5% NaCl at 0.65 mL/min, and fractions (each 2.55 mL) were collected. The radioactivity of each fraction was measured.
Cells were cultured in a medium containing G418, and stable transformants were selected.
Cells were incubated for 3 hours with an inhibitor at a predetermined concentration and then incubated for 6 hours with [^3H]HA in the presence of the inhibitor.
In order to investigate the hyaluronic acid decomposition mechanism by the mediation of KIAA1199, HEK293 cells (KIAA1199/HEK293), in which KIAA1199 is consistently expressed, were established.

[1] = tested on: cultured normal human skin fibroblasts (Detroit551); assay: [3H]HA decomposition assay using cultured normal human skin fibroblasts; assay type: cell-based; details: for decomposition of hyaluronic acid by cultured fibroblasts: exogenously added [3H]HA, substance added to the culture
Description: Normal human skin fibroblasts (Detroit 551, ATCC (American Type Culture Collection), HS-27, NHDF) were cultured in an Eagle's minimal essential medium (MEM) (MP Biomedicals, Solon, Ohio) supplemented with essential amino acids, 1 mM sodium pyruvate, and 10% (vol/vol) fetal bovine serum (FBS) (JRH Biosciences, Kansas). HEK293, COS-7 cells, and human synovial fibroblasts (TOYOBO) were maintained in a Dulbecco's modified Eagle's medium (Sigma) containing 10% fetal bovine serum, 100-units/mL penicillin, and 100-μg/mL streptomycin. Culturing was performed at 37° C. in a humidified atmosphere containing 5% CO2.
[^3H]-labeled hyaluronic acid ([^3H]HA) was prepared though a slightly modified method of Underhill, Toole, et al. (C. B. Underhill and B. P. Toole, Binding of hyaluronate to the surface of cultured cells. J. Cell Biol. 82 (1979) 475-84). Specifically, confluent Detroit 551 fibroblasts were incubated with D-[1,6-^3H(N)]glucosamine hydrochloride (10-μCi/mL). A conditioned medium was pooled, and the incubated cells were digested with pronase (0.3 mg/mL) and precipitated in ethanol. The formed pellets were suspended in water and re-precipitated with 1.5% cetylpyridinium chloride and 0.03M NaCl. The thus-formed pellets were dissolved in 0.1% cetylpyridinium chloride and 0.4M NaCl and re-precipitated again in ethanol. The thus-formed pellets were suspended in 5 mM phosphate buffer (pH: 7.5), and the suspension was applied to a Sepharose CL-2B column (10×600 mm) equilibrated with 0.5% NaCl. Vo fractions were collected, and the product was precipitated in ethanol. Finally, the product was dissolved in 5 mM phosphate buffer (pH: 7.5).
Cells were cultured in a medium containing [^3H]HA (40,000 dpm/mL) to confluent. After incubation, the medium was removed and applied to a Sepharose CL-2B column (10×600 mm). The medium was eluted with 0.5% NaCl at 0.65 mL/min, and fractions (each 2.55 mL) were collected. The radioactivity of each fraction was measured.
siRNAs (TT2 cohesive end, non-modified) each having 25 nucleotides with respect to KIAA1199, HYAL2, CD44, and a negative control were purchased from Invitrogen (Carlsbad, Calif.). Each siRNA was incorporated by use of Lipofectamine RNAiMAX (Invitrogen, Carlsbad, Calif.).

KIAA1199 mRNA [2] = details: stimulation with histamine
Description: Western blotting was performed through a standard method. In real-time PCR, total RNA was separated by use of RNeasy (Qiagen), and cDNA was synthesized by means of High Capacity cDNA Archive kit (Applied Biosystems, Foster City, Calif.). Real-time PCR was performed through TaqMan (registered trademark) technique and by means of an apparatus ABI Prism 7700 (Applied Biosystems, Foster City, Calif.).

KIAA1199 mRNA [3] = assay: Induction of KIAA1199 mRNA expression in cultured RA synovial cells; assay type: cell-based, human; details: inflammatory mediator added to cultured RA synovial cells
Description: Western blotting was performed through a standard method. In real-time PCR, total RNA was separated by use of RNeasy (Qiagen), and cDNA was synthesized by means of High Capacity cDNA Archive kit (Applied Biosystems, Foster City, Calif.).
Meanwhile, PGE2 (i.e., an inflammatory mediator) and several cytokines such as IL-1, IL-6, and TNF-α are present at high levels in synovial fluid of RA patients. Therefore, whether or not expression of KIAA1199 in RA synovial cells is induced by such an inflammatory mediator was investigated.

[4] = after stimulation with histamine

Molecule | decomposition of hyaluronic acid in KIAA1199/HEK293 cells (KIAA1199/HEK293 cells) | expression of KIAA1199 mRNA in RA synovial cells (KIAA1199 mRNA [3]) | also measured
CCN1C(=O)C=CC1=O [N-ethylmaleimide] | inhibited |  | 
NCCc1c[nH]cn1 [histamine] |  |  | Vmax of hyaluronic acid decomposition by cells [1, 4]: 1,370 μg/10^5 cells/3 days; apparent Km of hyaluronic acid decomposition by cells [1, 4]: 1,500 μg/mL; increase of Vmax of hyaluronic acid decomposition ([1]; after stimulation with histamine, versus unstimulated cells): 3.7 times; decomposition of hyaluronic acid by cultured fibroblasts [1]: up-regulated; increase in expression level of KIAA1199 mRNA (KIAA1199 mRNA [2]): 3.7 times
O=C(O)CN(CCN(CC(=O)O)CC(=O)O)CC(=O)O [EDTA] | inhibited |  | 
CCCCC[C@H](O)/C=C/[C@H]1[C@H](O)CC(=O)[C@@H]1C/C=C\CCCC(=O)O [PGE2, prostaglandin E2] |  | stimulate expression | 
CO/C1=C\C(C)=C\[C@@H](C)[C@@H](O)[C@@H](C)C/C(C)=C/C=C/[C@H](OC)[C@@H]([C@@H](C)[C@@H](O)[C@H](C)[C@@]2(O)C[C@@H](O)[C@H](C)[C@@H](C(C)C)O2)OC1=O [bafilomycin A1] | inhibited |  | 
heparin |  |  | decomposition of hyaluronic acid by cultured fibroblasts [1]: inhibited
CN(C)CCCN1c2ccccc2Sc2ccc(Cl)cc21 [chlorpromazine] | inhibited |  | 
O=c1cc(-c2ccc(O)c(O)c2)oc2c([C@@H]3O[C@H](CO)[C@@H](O)[C@H](O)[C@H]3O)c(O)cc(O)c12 [orientin] | inhibited |  | 
CC[C@@]1([C@@H]2O[C@@H]([C@H]3O[C@@](O)(CO)[C@H](C)C[C@@H]3C)C[C@@H]2C)CC[C@H]([C@]2(C)CC[C@]3(C[C@H](O)[C@@H](C)[C@@H]([C@@H](C)[C@@H](OC)[C@H](C)C(=O)O)O3)O2)O1 [monensin] | inhibited |  | 
TGF-[3]: TGF-β1, down-regulates hyaluronic acid decomposition in fibroblasts |  |  | decomposition of hyaluronic acid by cultured fibroblasts [1]: down-regulated
IL-β: cytokine, RA-related inflammatory mediator (probably IL-1β) |  | stimulate expression | 
IL-6: cytokine, RA-related inflammatory mediator |  | stimulate expression | 
B1 |  | stimulate expression | 
